Measured values from PMC7582876, “Antiproliferative Properties of a Few Auranofin-Related Gold(I) and Silver(I) Complexes in Leukemia Cells and their Interferences with the Ubiquitin Proteasome System” (Molecules, 2020).

Legend:
Format in all cases: biochemical
[1] = target: T1, bovine pancreatic α-chymotrypsin (Bos taurus, UniProt P00766); assay: Bovine pancreatic α-chymotrypsin inhibition screening; settings: over 10 min
T1 construct: from tissue; host or cells: bovine pancreas (from the enzyme's name only)
Protocol: (§1) 20S proteasome, isolated and purified from human erythrocytes, was obtained from a commercial source (Biomol GmbH, Hamburg, Germany), as well as the peptidic substrates (Bachem, Bubendorf, Switzerland) Suc-Leu-Leu-Val-Tyr-AMC, Boc-Leu-Arg-Arg-AMC and Cbz-Leu-Leu-Glu-AMC for ChT-L, T-L and PGPH (C-L) activity of the enzyme, respectively. The three distinct proteolytic activities of the 20S proteasome were measured by monitoring the hydrolysis of the substrates and detecting the fluorescence of the common product released, i.e., 7-amino-4-methyl coumarin (7-AMC), by means of an Infinite 200 PRO microplate reader (Tecan, Männedorf, Switzerland) at 30 °C with a 380-nm excitation filter and a 460-nm emission filter. All gold and silver complexes were tested against the three proteolytic activities of the 20S proteasome and against Cat-B, Cat-L and bovine pancreatic α-chymotrypsin at 10 µM concentrations over a period of 10 min using an equivalent amount of DMSO as a negative control. […]. The IC50 values were calculated with the program GraFit® using the two-parameter equation. More detailed experimental protocols for the assays against each proteolytic activity of the 20S proteasome, as well as against bovine pancreatic α-chymotrypsin, are already reported elsewhere (see also Supplementary Materials). Cat-B and Cat-L were purchased from Calbiochem, Darmstadt, Germany, and the related assays were performed as previously described. The employed fluorogenic substrate for both cysteine proteases was Cbz-Phe-Arg-AMC (80 µM for Cat-B; 5 µM for Cat-L).
Assay for Bovine Pancreatic α-Chymotrypsin Inhibition
The enzyme ([…]) was incubated at 20 °C with the test compound present at 10
µM (screening assay). The reaction buffer consisted of 50 mM Tris buffer pH 8.0
containing 100 mM NaCl, 5 mM EDTA and 7.5% DMSO. Product release from substrate
hydrolysis ([…] final concentration, Suc-Leu-Leu-Val-Tyr-AMC from Bachem) was
determined over a period of 10 min. […]

[2] = test system: human cathepsin-L (Cat-L); assay: Cathepsin-L inhibition screening; settings: over 10 min
Protocol: as §1, with “Cat-L). […]” for “Cat-L).”
Assay for Cathepsin-B and Cathepsin-L Inhibition
Assays were performed at 25 °C in a 20 mM Tris-HCl buffer, pH 6.0, containing 5 mM
EDTA, 2.5 mM DTT, 200 mM NaCl, 0.005% Brij 35 in a total volume of 285 µL. Substrate
(Cbz-Phe-Arg-AMC for both enzymes) and inhibitor stock solutions were prepared in
DMSO (10% final concentration) and were diluted with assay buffer; enzymes were held
for CB (recombinant, human liver). Inhibitors were used at concentrations between 0.35
µM and 140 µM. Product release from substrate hydrolysis was determined over a period

[3] = target: T2, chymotrypsin-like (ChT-L) activity of human 20S proteasome (Homo sapiens, UniProt P28074); assay: Inhibition of chymotrypsin-like activity of 20S proteasome (Suc-Leu-Leu-Val-Tyr-AMC); settings: for ChT-L inhibition at 10 µM: over 10 min; for IC50: 10 min, no pre-incubation, 30 °C
T2 construct: 20S proteasome, isolated and purified from human erythrocytes; purchased Biomol GmbH, Hamburg, Germany; host or cells: human erythrocytes (native complex)
Protocol: (§2) 20S proteasome, isolated and purified from human erythrocytes, was obtained from a commercial source (Biomol GmbH, Hamburg, Germany), as well as the peptidic substrates (Bachem, Bubendorf, Switzerland) Suc-Leu-Leu-Val-Tyr-AMC, Boc-Leu-Arg-Arg-AMC and Cbz-Leu-Leu-Glu-AMC for ChT-L, T-L and PGPH (C-L) activity of the enzyme, respectively. The three distinct proteolytic activities of the 20S proteasome were measured by monitoring the hydrolysis of the substrates and detecting the fluorescence of the common product released, i.e., 7-amino-4-methyl coumarin (7-AMC), by means of an Infinite 200 PRO microplate reader (Tecan, Männedorf, Switzerland) at 30 °C with a 380-nm excitation filter and a 460-nm emission filter. All gold and silver complexes were tested against the three proteolytic activities of the 20S proteasome and against Cat-B, Cat-L and bovine pancreatic α-chymotrypsin at 10 µM concentrations over a period of 10 min using an equivalent amount of DMSO as a negative control. […] The IC50 values were calculated with the program GraFit® using the two-parameter equation. More detailed experimental protocols for the assays against each proteolytic activity of the 20S proteasome, as well as against bovine pancreatic α-chymotrypsin, are already reported elsewhere (see also Supplementary Materials). Cat-B and Cat-L were purchased from Calbiochem, Darmstadt, Germany, and the related assays were performed as previously described. The employed fluorogenic substrate for both cysteine proteases was Cbz-Phe-Arg-AMC (80 µM for Cat-B; 5 µM for Cat-L). […]
Inhibition assay for the Chymotryptic Activity of the 20S Proteasome
Human 20S proteasome was incubated at 30 °C at a final concentration of 0.004 mg∙mL−1
with test compound present at 10 µM (screening assay) or at variable concentrations
(continuous assay). The reaction buffer consisted of 50 mM Tris pH 7.5, 10 mM NaCl, 25
mM KCl, 1 mM MgCl2, 0.03% SDS and 5% DMSO. Product release from substrate
hydrolysis ([…]) was monitored continuously over a period of 10 min. […]

[4] = target: T3, trypsin-like (T-L) activity of human 20S proteasome (Homo sapiens, UniProt Q99436); assay: Inhibition of trypsin-like activity of 20S proteasome (Boc-Leu-Arg-Arg-AMC); settings: for IC50: 10 min, no pre-incubation, 30 °C; for T-L inhibition at 10 µM: over 10 min
T3 construct: 20S proteasome, isolated and purified from human erythrocytes; purchased Biomol GmbH, Hamburg, Germany; host or cells: human erythrocytes (native complex)
Protocol: as §2
Inhibition assay for the Tryptic Activity of the 20S Proteasome
mg∙mL−1 with the test compound present at 10 µM (screening assay) or at variable
concentrations (continuous assay). The reaction buffer consisted of 50 mM Tris buffer pH
substrate hydrolysis ([…]) was monitored continuously over a period of 10 min. […]

SMILES	Bovine Pancreatic α-Chymotrypsin Inhibition (%) at 10 µM [1]	Cat-L Inhibition (%) at 10 µM [2]	ChT-L inhibition at 10 µM [3]	IC50 [4]	T-L inhibition at 10 µM [4]	IC50 [3]
CC[PH](CC)(CC)[Ag][Cl] [Ag(PEt3)Cl]	n.i.	n.i.	28 ± 0.5%	2200 ± 1300 nM	–	–
CC[PH](CC)(CC)[Ag][I] [Ag(PEt3)I]	n.i.	n.i.	25 ± 0.2%	2270 ± 780 nM	–	–
CC(=O)OC[C@H]1O[C@@H]([S-])[C@H](OC(C)=O)[C@@H](OC(C)=O)[C@@H]1OC(C)=O.CCP(CC)CC.[Au+] [auranofin, Auranofin]	n.i. ^a	n.i.	n.i. ^a	–	n.i.	–
CC[P](CC)(CC)[Au][I] [Au(PEt3)I]	n.i.	n.i.	–	5800 ± 300 nM	–	6100 ± 400 nM
CCP(CC)CC.[Au+].[Cl-] [Au(PEt3)Cl]	n.i.	n.i.	–	1250 ± 50 nM	–	2600 ± 300 nM
CC[PH](CC)(CC)[Ag][Br] [Ag(PEt3)Br]	n.i.	n.i.	22 ± 0.4%	2650 ± 150 nM	–	–
CCP(CC)CC.CCP(CC)CC.O=[N+]([O-])[O-].[Ag+] [[Ag(PEt3)2]NO3]	n.i.	20 ± 0.4%	38 ± 5.0%	–	n.i.	–
CCP(CC)CC.[Br][Au] [Au(PEt3)Br]	n.i.	n.i.	–	1260 ± 120 nM	–	1400 ± 800 nM
